In patent publication US10178875B2, “Methods of modifying or imparting taste using organic compounds” (Givaudan, S.A., priority 2013, dated 2019):

Legend:
Format in all cases: in vivo
bench-top tasting panel [1] = test: Umami evaluation in cheese sauce; conditions: Example 1 0.00025% by weight
Procedure: (§1) Umami evaluations were done in dry noodle seasoning, chicken broth, retorted chicken broth, cheese sauce and salted potato chip applications. Each application was prepared using MSG, the experimental umami tastant and a blank which contained neither MSG nor the experimental umami tastant. Next, using a bench-top tasting panel (consisting of 7 to 14 panelists), panelists were asked to record the sensory attribute differences between the control (blank), the MSG application and the application containing the experimental umami tastant. These sensory attributes include umami, saltiness, bitterness, off-notes, mouth feel attribute, lingering attribute and flavor profile differences. […] Annatto was plated on a mixture of salt, citric acid and lactic acid and blended well. Next, the remaining ingredients were added and mixed until well blended.

bench-top tasting panel [2] = test: Umami evaluation on salted potato chips (Example 19); conditions: 1% salted potato chips; for umami strength ranking: 14 panelists
Procedure: Umami evaluations were done in dry noodle seasoning, chicken broth, retorted chicken broth, cheese sauce and salted potato chip applications. Each application was prepared using MSG, the experimental umami tastant and a blank which contained neither MSG nor the experimental umami tastant. Next, using a bench-top tasting panel (consisting of 7 to 14 panelists), panelists were asked to record the sensory attribute differences between the control (blank), the MSG application and the application containing the experimental umami tastant. These sensory attributes include umami, saltiness, bitterness, off-notes, mouth feel attribute, lingering attribute and flavor profile differences.
One percent salt was added to a standard unsalted potato chip.

panel of trained tasters = test: Taste evaluation in water
Procedure: A one percent cut of each compound of Examples 1-13 was prepared first. The hydrochloride salts were cut directly into water, while the free base examples were cut into ethanol. Next, 100 ml of a 1 ppm, 10 ppm and 20 ppm solution were prepared. The 1 ppm standards were prepared by addition of 0.0126 ml (cut in ethanol) or 0.01 ml (cut in water) to an amber bottle followed by dilution to 100 g total sample weight using water. The 10 and 20 ppm solutions were prepared similarly, but using 0.126 ml ethanol/0.1 ml water or 0.252 ml ethanol/0.2 ml water of the 1% cuts respectively. Next, the samples were evaluated by a panel of trained tasters.

bench-top tasting panel [3] = test: Umami evaluation in chicken broth; conditions: Example 1 0.0002% by weight
Procedure: as §1, with “Turmeric” for “Annatto”, “salt” for “a mixture of salt, citric acid”, “chicken fat” for “lactic acid”, “blended. A concentration of 2.5% of the resulting mixture in hot water (82° C. (180° F.)) generated the noodle seasoning broth.” for “blended.”

bench-top tasting panel [4] = test: Umami evaluation in retorted chicken broth (Example 17); conditions: Example 1 0.0002% by weight
Procedure: Umami evaluations were done in dry noodle seasoning, chicken broth, retorted chicken broth, cheese sauce and salted potato chip applications. Each application was prepared using MSG, the experimental umami tastant and a blank which contained neither MSG nor the experimental umami tastant. Next, using a bench-top tasting panel (consisting of 7 to 14 panelists), panelists were asked to record the sensory attribute differences between the control (blank), the MSG application and the application containing the experimental umami tastant. These sensory attributes include umami, saltiness, bitterness, off-notes, mouth feel attribute, lingering attribute and flavor profile differences. The chicken broth generated in Example 16 was transferred to a can and sealed. Prior to sealing one batch was treated with the compound of Example 1 (0.0002% by weight) and the other batch was canned without the ingredient generating a blank control sample. After sealing the cans, they were heated to 121° C. (250° F.) (under pressure) for 25 minutes, cooled to room temperature and then stored in the refrigerator for two weeks. Prior to tasting, the cans were opened and reheated to 65.5° C. (150° F.).

bench-top tasting panel [5] = test: Umami evaluation in noodle seasoning broth; conditions: Example 1 0.0001% by weight
Procedure: Umami evaluations were done in dry noodle seasoning, chicken broth, retorted chicken broth, cheese sauce and salted potato chip applications. Each application was prepared using MSG, the experimental umami tastant and a blank which contained neither MSG nor the experimental umami tastant. Next, using a bench-top tasting panel (consisting of 7 to 14 panelists), panelists were asked to record the sensory attribute differences between the control (blank), the MSG application and the application containing the experimental umami tastant. These sensory attributes include umami, saltiness, bitterness, off-notes, mouth feel attribute, lingering attribute and flavor profile differences. [table] Turmeric was plated on salt and palm fat and blended well. Next, the remaining ingredients were added and mixed until well blended. A concentration of 1.5% of the resulting mixture in hot water generated the noodle seasoning broth. The following three samples were tasted and compared. [table]

Which “attribute noted by some panelists” value (bench-top tasting panel [1]) does the source give for `c1ccc(SCCc2ccccn2)cc1` [Example 1, 2-(2-(PHENYLTHIO)ETHYL)PYRIDINE] here?
The value was “green pepper attribute”.

And the “Number of panelists who noted green pepper offnote” value (“Number” for short) (bench-top tasting panel [1]; of 14 panelists)?
Its value is 4.

What about the umami strength ranking (bench-top tasting panel [1]; MSG 0.1%, 14 panelists) of the same molecule?
Its umami strength ranking is “MSG>Example 1>Blank Cheese Sauce”.

And the umami strength ranking (bench-top tasting panel [2]; Example 1 1 ppm (0.0001% by weight))?
Its umami strength ranking is “MSG>3 ppm Example 1>1 ppm Example 1>Blank Salted Chips”.

And the “attribute noted by some panelists” value (bench-top tasting panel [2]; Example 1 containing samples (1 ppm and 3 ppm))?
The value was “peppery attribute”.

What about the “Number” value (bench-top tasting panel [2]; Example 1 samples, of 14 panelists) of the same molecule?
Its value is 2.

And the umami strength ranking (bench-top tasting panel [2]; MSG 0.2%, Example 1 3 ppm (0.0003% by weight))?
Its umami strength ranking is “MSG>3 ppm Example 1>1 ppm Example 1>Blank Salted Chips”.

What about the aroma (panel of trained tasters; 1 ppm in water) of the same molecule?
Its aroma is “green”.

And the taste (panel of trained tasters; 1 ppm in water)?
The taste was “weak to moderate umami”.

And the aroma (panel of trained tasters; 10 ppm in water)?
Its aroma is “green”.

What about the taste (panel of trained tasters; 10 ppm in water) of the same molecule?
Its taste is “moderate umami, very weak: bitter, very weak”.

And the aroma (panel of trained tasters; 20 ppm in water)?
Its aroma is “Green, tomato, bell”.

And the taste (panel of trained tasters; 20 ppm in water)?
The taste was “strong umami, very weak bitter, weak metallic”.

What about the “attribute noted by some panelists” value (bench-top tasting panel [3]) of the same molecule?
The value was “green pepper/chili off-note attribute”.

And the “Number” value (bench-top tasting panel [3]; of 11 panelists)?
The value was 3.

What about the umami strength ranking (bench-top tasting panel [3]; MSG 0.1%, 11 panelists) of the same molecule?
The umami strength ranking was “MSG>Example 1>Blank Chicken Broth”.

What about the umami versus control (bench-top tasting panel [4]; retorted chicken broth (121° C., 25 minutes, stored two weeks), 10 panelists) of the same molecule?
The umami versus control was “more umami than the control”.

And the off-notes (bench-top tasting panel [4]; retorted chicken broth)?
The off-notes was “pepper off-notes”.

What about the “Number” value (bench-top tasting panel [4]; retorted chicken broth, of 10 panelists) of the same molecule?
Its value is 4.

And the “attribute noted by some panelists” value (bench-top tasting panel [5])?
Its value is “green pepper attribute”.

And the “Number” value (bench-top tasting panel [5]; of 11 panelists)?
The value was 2.

What about the umami strength ranking (bench-top tasting panel [5]; MSG 0.1%, 11 panelists) of the same molecule?
The umami strength ranking was “MSG>Example 1>Blank Noodle Seasoning”.
